pEC50, pIC50, pKd: −log10 of the molar value. Calls of active or inactive are those of the source. The rule behind the calls is not given here.
What was measured:
[1] = test system: Human immunodeficiency virus 1; test: Antiviral activity against HIV1 NL4-3 infected in human TZM-bl cells assessed as reduction in virus induced cytopathogenicity incubated for 1 day by luciferase reporter gene assay; type: functional, organism-based; settings: Human immunodeficiency virus 1, NL4-3, TZM-bl, 24 h
[2] = test system: TZM; test: Cytotoxicity in uninfected human TZM-bl assessed as reduction in cell viability incubated for 1 day by Cyto-tox-Glo cytotoxicity assay; type: cell-based; settings: 24 h
[3] = molecular target: T1, Structural capsid protein (Human immunodeficiency virus 1, UniProt Q76129); test: Binding affinity to HIV1 NL4-3 capsid protein hexamer by SPR analysis
T1 sequence (Q76129 whole entry): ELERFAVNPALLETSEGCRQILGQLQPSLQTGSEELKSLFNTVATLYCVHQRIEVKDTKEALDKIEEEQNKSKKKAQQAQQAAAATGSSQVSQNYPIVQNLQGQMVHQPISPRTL

[4] = molecular target: T1, Structural capsid protein; test: Binding affinity to HIV1 NL4-3 capsid protein monomer by SPR analysis
[5] = test system: Human immunodeficiency virus 2; test: Antiviral activity against HIV2 ROD infected in human MT4 cells assessed as reduction in virus-induced cell death incubated for 5 days by MTT assay; settings: Human immunodeficiency virus 2, ISOLATE ROD, MT4, 120 h
[6] = test system: MT4; test: Cytotoxicity in mock-infected human MT4 assessed as reduction in cell viability incubated for 5 days by MTT assay; type: cell-based; settings: mt4, 120 h
[7] = test system: Human immunodeficiency virus 1; test: Antiviral activity against HIV1 3B infected in human MT4 cells assessed as reduction in virus-induced cell death incubated for 5 days by MTT assay; type: functional, organism-based; settings: Human immunodeficiency virus 1, 3B, MT4, 120 h
[8] = Stability in human plasma assessed as compound remaining level at 2 uM incubated for 120 mins at 37 degC by LC-MS/MS analysis; type: ADME, cell-free; settings: 2 h
[9] = human, microsomes
Description: Intrinsic clearance in human liver microsomes in presence of NADPH regenerating system by LC-MS/MS analysis

[10] = molecular target: Structural capsid protein (Human immunodeficiency virus 1) (UniProt Q76129); test: Induction of HIV1 NL4-3 capsid protein assembly at 50 uM measured every 1 min for 19 mins
Sequence of Structural capsid protein (Human immunodeficiency virus 1) (Q76129 as listed by the source): as the sequence (Q76129 whole entry) above

[11] = test system: Human immunodeficiency virus 1; test: Antiviral activity against HIV1 Env-pseudotyped virus in human U87.CD4.CCR5 target cells assessed as reduction in viral infection at late stage; type: functional, organism-based; settings: Human immunodeficiency virus 1, U87/CD4/CCR5
[12] = test system: Human immunodeficiency virus 1; test: Induction of increase in CA/p24 content in HIV1 NL4-3 infected in human TZM-bl cells at 10 uM by ELISA relative to control; type: functional
[13] = test system: Human immunodeficiency virus 1; test: Antiviral activity against HIV1 Env-pseudotyped virus in human U87.CD4.CCR5 target cells assessed as reduction in viral infection at early stage; type: functional, organism-based; settings: Human immunodeficiency virus 1, U87/CD4/CCR5
[14] = human, microsomes; remark: listed apart in the source
Description: Half life in human liver microsomes in presence of NADPH regenerating system by LC-MS/MS analysis

[15] = molecular target: Structural capsid protein (Human immunodeficiency virus 1) (UniProt Q76129); test: Inhibition of HIV1 NL4-3 capsid protein assembly at 50 uM measured every 1 min for 19 mins

SMILES	pEC50 [1]	CC50 [2]	further results
COc1ccc(N(C)C(=O)[C@H](Cc2ccccc2)NC(=O)CN2CCN(S(=O)(=O)c3ccc(F)cc3)CC2=O)cc1	5.97	25.7 µM	
COc1ccc(N(C)C(=O)[C@H](Cc2ccccc2)NC(=O)CNS(=O)(=O)c2ccc([N+](=O)[O-])cc2)cc1	< 4.42	> 38 µM	
COc1ccc(N(C)C(=O)[C@H](Cc2ccccc2)NC(=O)CN2C(=O)Nc3ccc(OC)cc3S2(=O)=O)cc1	5.31	> 36.2 µM	
COc1ccc(N(C)C(=O)[C@H](Cc2ccccc2)NC(=O)CN2C(=O)N(CC(=O)N[C@@H](Cc3ccccc3)C(=O)N(C)c3ccc(OC)cc3)S(=O)(=O)c3cc(F)ccc32)cc1	5.42	> 23.1 µM	pKd [3]: 5.89; pKd [4]: 6.70
COc1ccc(N(C)C(=O)[C@H](Cc2ccccc2)NC(=O)CN2CCN(S(=O)(=O)c3ccc(Br)cc3)CC2=O)cc1	6.44	> 31.1 µM	
COc1ccc(N(C)C(=O)[C@H](Cc2ccccc2)NC(=O)CNS(=O)(=O)c2ccc(F)cc2)cc1	5.17	> 40 µM	
COc1ccc(N(C)C(=O)[C@H](Cc2ccccc2)NC(=O)CN2C(=O)Nc3ccc(C)cc3S2(=O)=O)cc1	5.22	> 37.3 µM	
COc1ccc(N(C)C(=O)[C@H](Cc2ccccc2)NC(=O)CNS(=O)(=O)c2c(C)cc(C)cc2C)cc1	4.97	> 38.2 µM	
COc1ccc(N(C)C(=O)[C@H](Cc2ccccc2)NC(=O)CN2CCN(S(=O)(=O)c3cccc(N)c3)CC2=O)cc1	6.48	> 34.5 µM	pKd [3]: 5.52; pKd [4]: 5.00
COc1ccc(N(C)C(=O)[C@H](Cc2ccccc2)NC(=O)CN2CCN(S(=O)(=O)c3ccccc3)CC2=O)cc1	6.43	> 35.4 µM	pEC50 [5]: 7.49; CC50 [6]: 109 µM; pEC50 [7]: 6.15
COc1ccc(N(C)C(=O)[C@H](Cc2ccccc2)NC(=O)CNS(=O)(=O)c2ccc(N)cc2)cc1	5.18	> 40.3 µM	
COc1ccc(N(C)C(=O)[C@H](Cc2ccccc2)NC(=O)CN2CCN(S(=O)(=O)c3ccccc3N)CC2=O)cc1	6.27	> 34.5 µM	
COc1ccc(N(C)C(=O)[C@H](Cc2ccccc2)NC(=O)CNS(=O)(=O)c2ccccc2[N+](=O)[O-])cc1	5.06	> 38 µM	
Cc1[nH]c2ccccc2c1CC(=O)N[C@@H](Cc1ccccc1)C(=O)N(C)c1ccccc1		> 47 µM	Stability [8]: 69%; CLH [9]: 1080.3 µL/min/mg; Activity [10]: Active; CC50 [6]: 145 µM; pIC50 [11]: 6.64; Activity [12]: 40%; pIC50 [13]: 7.25
COc1ccc(N(C)C(=O)[C@H](Cc2ccccc2)NC(=O)CNS(=O)(=O)c2ccc(C)cc2)cc1	5.20	> 40.4 µM	
COc1ccc(N(C)C(=O)[C@H](Cc2ccccc2)NC(=O)CNS(=O)(=O)c2cc(C)cc(C)c2)cc1	5.04	> 39.2 µM	
COc1ccc(N(C)C(=O)[C@H](Cc2ccccc2)NC(=O)CN2C(=O)N(CC(=O)N[C@@H](Cc3ccccc3)C(=O)N(C)c3ccc(OC)cc3)S(=O)(=O)c3cc(Br)ccc32)cc1	5.25	> 21.6 µM	
COc1ccc(N(C)C(=O)[C@H](Cc2ccccc2)NC(=O)CN2CCN(S(=O)(=O)c3ccccc3F)CC2=O)cc1	6.32	> 34.3 µM	
COc1ccc(N(C)C(=O)[C@H](Cc2ccccc2)NC(=O)CN2C(=O)N(CC(=O)N[C@@H](Cc3ccccc3)C(=O)N(C)c3ccc(OC)cc3)S(=O)(=O)c3cc(Cl)ccc32)cc1	5.32	> 22.7 µM	

SMILES	pEC50 [1]	CC50 [2]	further results
COc1ccc(N(C)C(=O)[C@H](Cc2ccccc2)NC(=O)CNS(=O)(=O)c2ccc(Cl)cc2)cc1	5.01	> 38.8 µM	
COc1ccc(N(C)C(=O)[C@H](Cc2ccccc2)NC(=O)CNS(=O)(=O)c2cccc(N)c2)cc1	5.08	> 40.3 µM	
COc1ccc(N(C)C(=O)[C@H](Cc2ccccc2)NC(=O)CN2CCN(S(=O)(=O)c3ccccc3[N+](=O)[O-])CC2=O)cc1	6.00		
COc1ccc(N(C)C(=O)[C@H](Cc2ccccc2)NC(=O)CN2CCN(S(=O)(=O)c3ccc(OC)cc3)CC2=O)cc1	6.19	> 33.6 µM	
COc1ccc(N(C)C(=O)[C@H](Cc2ccccc2)NC(=O)CNS(=O)(=O)c2c(C(C)C)cc(C(C)C)cc2C(C)C)cc1	5.10	> 32.9 µM	
COc1ccc(N(C)C(=O)[C@H](Cc2ccccc2)NC(=O)CN2CCN(S(=O)(=O)c3cccc(F)c3)CC2=O)cc1	6.35	> 34.3 µM	
COc1ccc(N(C)C(=O)[C@H](Cc2ccccc2)NC(=O)CNS(=O)(=O)c2ccccc2N)cc1	5.04	> 40.3 µM	
COc1ccc(N(C)C(=O)[C@H](Cc2ccccc2)NC(=O)CNS(=O)(=O)c2cccc([N+](=O)[O-])c2)cc1	5.05	> 38 µM	
O=C(O)Cc1ccccc1Nc1c(Cl)cccc1Cl [DICLOFENAC]			CLH [9]: 93.6 µL/min/mg; t1/2 [14]: 14.8 min
COc1ccc(N(C)C(=O)[C@H](Cc2ccccc2)NC(=O)CNS(=O)(=O)c2ccc(Br)cc2)cc1	5.09	> 35.7 µM	
COc1ccc(N(C)C(=O)[C@H](Cc2ccccc2)NC(=O)CN2CCN(S(=O)(=O)c3ccc(C)cc3)CC2=O)cc1	6.30	> 34.6 µM	
COc1ccc(N(C)C(=O)[C@H](Cc2ccccc2)NC(=O)CN2CCN(S(=O)(=O)c3cccc([N+](=O)[O-])c3)CC2=O)cc1	6.17	> 32.8 µM	
COc1ccc(N(C)C(=O)[C@H](Cc2ccccc2)NC(=O)CNS(=O)(=O)c2cccc(F)c2)cc1	5.25	> 40 µM	pEC50 [5]: 4.70; CC50 [6]: 136 µM; pIC50 [11]: 5.38; pIC50 [13]: 5.09; inhibition [15]: Active; pEC50 [7]: 4.61
COc1ccc(N(C)C(=O)[C@H](Cc2ccccc2)NC(=O)CN2C(=O)Nc3ccccc3S2(=O)=O)cc1	5.68	> 38.3 µM	pEC50 [5]: 5.57; CC50 [6]: 130 µM; pIC50 [11]: 5.61; pIC50 [13]: 5.71; inhibition [15]: Active; pEC50 [7]: 5.22
COc1ccc(N(C)C(=O)[C@H](Cc2ccccc2)NC(=O)CN2CCN(S(=O)(=O)c3ccc([N+](=O)[O-])cc3)CC2=O)cc1	6.52	> 32.8 µM	pEC50 [5]: 6.80; CC50 [6]: 8.89 µM; pEC50 [7]: 5.31
COc1ccc(N(C)C(=O)[C@H](Cc2ccccc2)NC(=O)CN2CCN(S(=O)(=O)c3ccc(Cl)cc3)CC2=O)cc1	5.98	> 33.4 µM	
COc1ccc(N(C)C(=O)[C@H](Cc2ccccc2)NC(=O)CNS(=O)(=O)c2ccccc2)cc1	5.21	> 41.5 µM	
COc1ccc(N(C)C(=O)[C@H](Cc2ccccc2)NC(=O)CNS(=O)(=O)c2ccc(OC)cc2)cc1	4.98	> 39.1 µM	
COc1ccc(N(C)C(=O)[C@H](Cc2ccccc2)NC(=O)CNS(=O)(=O)c2ccccc2F)cc1	4.97	> 40 µM	

— ChEMBL document CHEMBL4342517, “Design, Synthesis, and Mechanism Study of Benzenesulfonamide-Containing Phenylalanine Derivatives as Novel HIV-1 Capsid Inhibitors with Improved Antiviral Activities” (J Med Chem, 2020)
